Numbers after ± are expanded uncertainties.
Conditions: 101.33 kPa, Liquid

| Structure (SMILES) | speed of sound (293.15 K) | viscosity (293.15 K) | speed of sound (298.15 K) | viscosity (298.15 K) | speed of sound (303.15 K) | viscosity (303.15 K) | speed of sound (308.15 K) | viscosity (308.15 K) | speed of sound (313.15 K) | viscosity (313.15 K) | speed of sound (318.15 K) | viscosity (318.15 K) |
| --- | --- | --- | --- | --- | --- | --- | --- | --- | --- | --- | --- | --- |
| CCCCO [butan-1-ol] | 1262.4 ± 2.8 m/s | 2.936 ± 0.066 mPa·s | 1242.6 ± 2.7 m/s | 2.542 ± 0.058 mPa·s | 1224.6 ± 2.7 m/s | 2.275 ± 0.052 mPa·s | 1207.6 ± 2.7 m/s | 1.998 ± 0.046 mPa·s | 1189.2 ± 2.7 m/s | 1.744 ± 0.041 mPa·s | 1170 ± 2.6 m/s | 1.571 ± 0.037 mPa·s |
| NC=O [formamide] | 1615.8 ± 3.3 m/s | 3.654 ± 0.081 mPa·s | 1601 ± 3.3 m/s | 3.322 ± 0.074 mPa·s | 1589.2 ± 3.3 m/s | 2.966 ± 0.067 mPa·s | 1577.2 ± 3.3 m/s | 2.653 ± 0.06 mPa·s | 1565.1 ± 3.2 m/s | 2.404 ± 0.055 mPa·s | 1553.1 ± 3.2 m/s | 2.219 ± 0.051 mPa·s |

From the NIST ThermoML archive (doi:10.1016/j.fluid.2007.12.007)
